# Organism: Rattus norvegicus
# Assay: Open TG-GATES - Regimen: Daily Repeat
# Type: toxicity, organism-based, Sprague-Dawley
# Set-up: regimen Daily Repeat, gender Male, age 6 weeks
# Conditions: in vivo, po, route gavage; for APTT / Bas / Eos / Fbg / Hb / Ht / Lym / MCH / MCHC / MCV / Mono / Neu / PT / Plat / RBC / Ret / WBC: tissue Blood; for KIDNEY_L / KIDNEY_R / KIDNEY_TOTAL: tissue Kidney; for LIVER: tissue Liver; for A/G / ALP / ALT / AST / BUN / CRE / Ca / Cl / DBIL / GLC / IP / K / LDH / Na / PL / RALB / TBIL / TC / TG / TP / gamma-GTP: tissue Plasma
# [1] = 0 mg/kg, 72 h, dose level Control, time 3 day
# [2] = 0 mg/kg, […], dose level Control, time 7 day
# [3] = 0 mg/kg, […], dose level Control, time 14 day
# [4] = 0 mg/kg, […], dose level Control, time 28 day
# [5] = 30 mg/kg, 72 h, dose level Low, time 3 day
# [6] = 30 mg/kg, […], dose level Low, time 7 day
# [7] = 30 mg/kg, […], dose level Low, time 14 day
# [8] = 30 mg/kg, […], dose level Low, time 28 day
structure (smiles),measurement,setting,value
CCc1cc(C(N)=S)ccn1 [ETHIONAMIDE],TERMINAL_BW,[1],250.2 g
same,APTT,[1],17.3 s
same,Bas,[1],0%
same,Eos,[1],1%
same,Fbg,[1],262 mg/dL
same,Hb,[1],13.2 g/dL
same,Ht,[1],38.9%
same,Lym,[1],73%
same,MCH,[1],22 pg
same,MCHC,[1],33.9%
same,MCV,[1],64.7 fL
same,Mono,[1],7.6%
same,Neu,[1],18.6%
same,PT,[1],11.9 s
same,Plat,[1],128 x10_4/uL
same,RBC,[1],601.2 x10_4/ul
same,Ret,[1],12.2%
same,WBC,[1],130.2 x10_2/uL
same,KIDNEY_L,[1],1.1 g
same,KIDNEY_R,[1],1.2 g
same,KIDNEY_TOTAL,[1],2.3 g
same,LIVER,[1],12.8 g
same,A/G,[1],1.6
same,ALP,[1],851.8 IU/L
same,ALT,[1],39 IU/L
same,AST,[1],62.8 IU/L
same,BUN,[1],18.2 mg/dL
same,CRE,[1],0.5 mg/dL
same,Ca,[1],11 mg/dL
same,Cl,[1],104.6 meq/L
same,DBIL,[1],0.018 mg/dL
same,GLC,[1],188.6 mg/dL
same,IP,[1],7.3 mg/dL
same,K,[1],4.6 meq/L
same,LDH,[1],80.2 IU/L
same,Na,[1],141 meq/L
same,PL,[1],153 mg/dL
same,RALB,[1],3.6 g/dL
same,TBIL,[1],0.3 mg/dL
same,TC,[1],80.6 mg/dL
same,TG,[1],99 mg/dL
same,TP,[1],5.8 g/dL
same,gamma-GTP,[1],2 IU/L
same,TERMINAL_BW,[2],270.2 g
same,TERMINAL_BW,[3],326.8 g
same,TERMINAL_BW,[4],416.8 g
same,APTT,[2],17.5 s
same,Bas,[2],0%
same,Eos,[2],1%
same,Fbg,[2],218.4 mg/dL
same,Hb,[2],14.1 g/dL
same,Ht,[2],41.5%
same,Lym,[2],78%
same,MCH,[2],21.4 pg
same,MCHC,[2],34%
same,MCV,[2],62.9 fL
same,Mono,[2],8%
same,Neu,[2],13%
same,PT,[2],11.5 s
same,Plat,[2],119.6 x10_4/uL
same,RBC,[2],661.6 x10_4/ul
same,Ret,[2],3.8%
same,WBC,[2],107.3 x10_2/uL
same,APTT,[3],18.7 s
same,Bas,[3],0%
same,Eos,[3],1%
same,Fbg,[3],215.4 mg/dL
same,Hb,[3],14.8 g/dL
same,Ht,[3],43.6%
same,Lym,[3],79.6%
same,MCH,[3],20.5 pg
same,MCHC,[3],33.8%
same,MCV,[3],60.8 fL
same,Mono,[3],5.4%
same,Neu,[3],14.2%
same,PT,[3],12 s
same,Plat,[3],120.6 x10_4/uL
same,RBC,[3],718.8 x10_4/ul
same,Ret,[3],4%
same,WBC,[3],122.9 x10_2/uL
same,APTT,[4],18.6 s
same,Bas,[4],0%
same,Eos,[4],1.6%
same,Fbg,[4],235.8 mg/dL
same,Hb,[4],15.6 g/dL
same,Ht,[4],46%
same,Lym,[4],78.8%
same,MCH,[4],19.6 pg
same,MCHC,[4],34%
same,MCV,[4],57.7 fL
same,Mono,[4],6.6%
same,Neu,[4],13.2%
same,PT,[4],11.9 s
same,Plat,[4],116.1 x10_4/uL
same,RBC,[4],796.2 x10_4/ul
same,Ret,[4],4.8%
same,WBC,[4],122.5 x10_2/uL
same,KIDNEY_L,[2],1.2 g
same,KIDNEY_R,[2],1.3 g
same,KIDNEY_TOTAL,[2],2.5 g
same,KIDNEY_L,[3],1.3 g
same,KIDNEY_R,[3],1.3 g
same,KIDNEY_TOTAL,[3],2.7 g
same,KIDNEY_L,[4],1.6 g
same,KIDNEY_R,[4],1.6 g
same,KIDNEY_TOTAL,[4],3.2 g
same,LIVER,[2],13.2 g
same,LIVER,[3],14.6 g
same,LIVER,[4],17.7 g
same,A/G,[2],1.6
same,ALP,[2],836.8 IU/L
same,ALT,[2],30.8 IU/L
same,AST,[2],58.4 IU/L
same,BUN,[2],18.4 mg/dL
same,CRE,[2],0.4 mg/dL
same,Ca,[2],10.2 mg/dL
same,Cl,[2],103.8 meq/L
same,DBIL,[2],0.064 mg/dL
same,GLC,[2],195.6 mg/dL
same,IP,[2],7.3 mg/dL
same,K,[2],4.8 meq/L
same,LDH,[2],74.6 IU/L
same,Na,[2],140 meq/L
same,PL,[2],153.4 mg/dL
same,RALB,[2],3.7 g/dL
same,TBIL,[2],0.3 mg/dL
same,TC,[2],74.2 mg/dL
same,TG,[2],129.4 mg/dL
same,TP,[2],6 g/dL
same,gamma-GTP,[2],2 IU/L
same,A/G,[3],2.3
same,ALP,[3],758.4 IU/L
same,ALT,[3],32 IU/L
same,AST,[3],62 IU/L
same,BUN,[3],19.8 mg/dL
same,CRE,[3],0.5 mg/dL
same,Ca,[3],10.7 mg/dL
same,Cl,[3],105.6 meq/L
same,DBIL,[3],0.052 mg/dL
same,GLC,[3],196.2 mg/dL
same,IP,[3],6.8 mg/dL
same,K,[3],4.7 meq/L
same,LDH,[3],68.6 IU/L
same,Na,[3],142 meq/L
same,PL,[3],146.2 mg/dL
same,RALB,[3],4.1 g/dL
same,TBIL,[3],0.3 mg/dL
same,TC,[3],68.8 mg/dL
same,TG,[3],111.6 mg/dL
same,TP,[3],5.8 g/dL
same,gamma-GTP,[3],1.4 IU/L
same,A/G,[4],1.8
same,ALP,[4],523.4 IU/L
same,ALT,[4],31.6 IU/L
same,AST,[4],55.6 IU/L
same,BUN,[4],21.2 mg/dL
same,CRE,[4],0.6 mg/dL
same,Ca,[4],10.2 mg/dL
same,Cl,[4],104.4 meq/L
same,DBIL,[4],0.02 mg/dL
same,GLC,[4],199.4 mg/dL
same,IP,[4],6 mg/dL
same,K,[4],4.6 meq/L
same,LDH,[4],74.8 IU/L
same,Na,[4],140.4 meq/L
same,PL,[4],141.2 mg/dL
same,RALB,[4],4 g/dL
same,TBIL,[4],0.3 mg/dL
same,TC,[4],69 mg/dL
same,TG,[4],157.2 mg/dL
same,TP,[4],6.2 g/dL
same,gamma-GTP,[4],1.8 IU/L
same,TERMINAL_BW,[5],240.4 g
same,APTT,[5],17.3 s
same,Bas,[5],0%
same,Eos,[5],1.6%
same,Fbg,[5],217.6 mg/dL
same,Hb,[5],14.2 g/dL
same,Ht,[5],42.2%
same,Lym,[5],75%
same,MCH,[5],21 pg
same,MCHC,[5],33.7%
same,MCV,[5],62.3 fL
same,Mono,[5],6.6%
same,Neu,[5],17.4%
same,PT,[5],11.5 s
same,Plat,[5],130.1 x10_4/uL
same,RBC,[5],677.6 x10_4/ul
same,Ret,[5],9.8%
same,WBC,[5],94.2 x10_2/uL
same,KIDNEY_L,[5],1.1 g
same,KIDNEY_R,[5],1.1 g
same,KIDNEY_TOTAL,[5],2.2 g
same,LIVER,[5],12.2 g
same,A/G,[5],1.8
same,ALP,[5],919.8 IU/L
same,ALT,[5],34.4 IU/L
same,AST,[5],60 IU/L
same,BUN,[5],18 mg/dL
same,CRE,[5],0.5 mg/dL
same,Ca,[5],10.7 mg/dL
same,Cl,[5],105.4 meq/L
same,DBIL,[5],0.008 mg/dL
same,GLC,[5],190.8 mg/dL
same,IP,[5],7.2 mg/dL
same,K,[5],4.6 meq/L
same,LDH,[5],84 IU/L
same,Na,[5],141.2 meq/L
same,PL,[5],152.6 mg/dL
same,RALB,[5],3.6 g/dL
same,TBIL,[5],0.2 mg/dL
same,TC,[5],80 mg/dL
same,TG,[5],100.4 mg/dL
same,TP,[5],5.6 g/dL
same,gamma-GTP,[5],2 IU/L
same,TERMINAL_BW,[6],280.6 g
same,TERMINAL_BW,[7],330.7 g
same,TERMINAL_BW,[8],406.9 g
same,APTT,[6],16.9 s
same,Bas,[6],0%
same,Eos,[6],1%
same,Fbg,[6],223.4 mg/dL
same,Hb,[6],13.9 g/dL
same,Ht,[6],41.1%
same,Lym,[6],71%
same,MCH,[6],21.2 pg
same,MCHC,[6],34%
same,MCV,[6],62.5 fL
same,Mono,[6],9.4%
same,Neu,[6],18.8%
same,PT,[6],11.5 s
same,Plat,[6],132.9 x10_4/uL
same,RBC,[6],657.4 x10_4/ul
same,Ret,[6],5%
same,WBC,[6],131.2 x10_2/uL
same,APTT,[7],16.8 s
same,Bas,[7],0%
same,Eos,[7],1.2%
same,Fbg,[7],223 mg/dL
same,Hb,[7],14.9 g/dL
same,Ht,[7],43.6%
same,Lym,[7],76.4%
same,MCH,[7],20.7 pg
same,MCHC,[7],34.1%
same,MCV,[7],60.6 fL
same,Mono,[7],4%
same,Neu,[7],18%
same,PT,[7],11.8 s
same,Plat,[7],125.2 x10_4/uL
same,RBC,[7],720.8 x10_4/ul
same,Ret,[7],4.5%
same,WBC,[7],124.4 x10_2/uL
same,APTT,[8],17.4 s
same,Bas,[8],0%
same,Eos,[8],1.4%
same,Fbg,[8],234.8 mg/dL
same,Hb,[8],15.5 g/dL
same,Ht,[8],45.4%
same,Lym,[8],74%
same,MCH,[8],19.8 pg
same,MCHC,[8],34.2%
same,MCV,[8],57.7 fL
same,Mono,[8],6%
same,Neu,[8],19.2%
same,PT,[8],11.7 s
same,Plat,[8],123.5 x10_4/uL
same,RBC,[8],785.8 x10_4/ul
same,Ret,[8],5.4%
same,WBC,[8],154 x10_2/uL
same,KIDNEY_L,[6],1.2 g
same,KIDNEY_R,[6],1.2 g
same,KIDNEY_TOTAL,[6],2.4 g
same,KIDNEY_L,[7],1.4 g
same,KIDNEY_R,[7],1.4 g
same,KIDNEY_TOTAL,[7],2.7 g
same,KIDNEY_L,[8],1.5 g
same,KIDNEY_R,[8],1.6 g
same,KIDNEY_TOTAL,[8],3.1 g
same,LIVER,[6],13.8 g
same,LIVER,[7],15 g
same,LIVER,[8],17.7 g
same,A/G,[6],1.6
same,ALP,[6],859.6 IU/L
same,ALT,[6],31.8 IU/L
same,AST,[6],57.2 IU/L
same,BUN,[6],20 mg/dL
same,CRE,[6],0.4 mg/dL
same,Ca,[6],10.4 mg/dL
same,Cl,[6],103.2 meq/L
same,DBIL,[6],0.078 mg/dL
same,GLC,[6],197.2 mg/dL
same,IP,[6],6.8 mg/dL
same,K,[6],5 meq/L
same,LDH,[6],95.2 IU/L
same,Na,[6],139.2 meq/L
same,PL,[6],143.6 mg/dL
same,RALB,[6],3.6 g/dL
same,TBIL,[6],0.3 mg/dL
same,TC,[6],71.8 mg/dL
same,TG,[6],119.6 mg/dL
same,TP,[6],5.9 g/dL
same,gamma-GTP,[6],2 IU/L
same,A/G,[7],2.3
same,ALP,[7],705.8 IU/L

# Source: ChEMBL document CHEMBL3885861, “Open TG-GATES”
